Data on seven molecules can be found in article PMC8688338 (Molecular microbiology, 2021).

The subject of data set [1] is T. vaginalis nucleoside transporters, Adenosine (HA). The data set is described as follows: High affinity [3H]-adenosine transport in T. vaginalis trophozoites. The class given is cell-based, Trichomonas vaginalis.
The target in data set [2] is T. vaginalis nucleoside transporters, Guanosine (HA). The data set is described as follows: [3H]-guanosine transport in T. vaginalis trophozoites. The settings on record: read-out: Ki,app; inhibition of [3H]-guanosine transport; monophasic sigmoid curve; average and SEM. The class given is cell-based, Trichomonas vaginalis.
Data set [3] addresses T. vaginalis nucleoside transporters, Inosine (LA). The data set is described as follows: Low affinity [3H]-inosine transport in T. vaginalis trophozoites. It counts as cell-based, Trichomonas vaginalis. The settings on record: for Ki: read-out: Ki,app; for Km: read-out: Km,app.
For data set [4], the target named is T. vaginalis nucleoside transporters, Uridine (HA). The data set is described as follows: [3H]-uridine transport in T. vaginalis trophozoites. The settings on record: for Km: read-out: Km,app, Uridine (HA). The class given is cell-based, Trichomonas vaginalis.
The target of data set [5] is T. vaginalis nucleoside transporters, Cytidine (HA). The data set is described as follows: High affinity [3H]-cytidine transport in T. vaginalis trophozoites. It counts as cell-based, Trichomonas vaginalis. The settings on record: for Ki: read-out: Ki,app, inhibition of […] [3H]-cytidine transport, 30 s; for Km: read-out: Km,app, […] [3H]-cytidine.
The subject of data set [6] is T. vaginalis nucleoside transporters, Adenosine (LA). The data set is described as follows: Low affinity adenosine transport. It counts as cell-based, Trichomonas vaginalis. The conditions noted are these: for EC50 / Ki: inhibition of 20 µM [3H]-adenosine transport; for EC50: Fig. 4; for Km: read-out: Km,app; for Ki: read-out: Ki,app.
Data set [7] has as its target T. vaginalis nucleoside transporters, Cytidine (LA). The data set is described as follows: Low affinity cytidine transport in T. vaginalis trophozoites. The conditions noted are these: average and SEM. It counts as cell-based, Trichomonas vaginalis.
For data set [8], the system named is T. vaginalis nucleoside transporters, Thymidine (LA). The data set is described as follows: Low affinity thymidine transport. The class given is cell-based, Trichomonas vaginalis. The settings on record: 1 µM [3H]-thymidine; single experiment, Fig. 3E.
For data set [9], the system named is low affinity pyrimidine nucleobase transporter of T. vaginalis. The data set is described as follows: [3H]-uracil transport in T. vaginalis trophozoites. The class given is cell-based, Trichomonas vaginalis. The conditions noted are these: uridine, thymidine up to 10 mM; adenosine, inosine up to 1 mM.
Data set [10] concerns T. vaginalis adenine transporter. The data set is described as follows: [3H]-adenine transport in T. vaginalis trophozoites. It counts as cell-based, Trichomonas vaginalis.
Data set [11] has as its system T. vaginalis nucleoside transporters. The settings on record: ref Harris et al., 1988; cited from earlier work.
In data set [12] the target is T1, TvagENT6 (Trichomonas vaginalis, UniProt A2EMT5). The data set is described as follows: cell-based.
The target of data set [13] is TvagENT3 (Trichomonas vaginalis, UniProt A2E5Q3). The data set is described as follows: [3H]-cytidine uptake by T. brucei TbAT1-KO cells expressing TvagENT3. The conditions noted are these: for inhibition of cytidine uptake: 0.5 µM [3H]-cytidine.
Data set [14] has as its system T. vaginalis nucleoside transporters, Thymidine (HA). The data set is described as follows: Higher affinity [3H]-thymidine transport. The class given is cell-based, Trichomonas vaginalis. The settings on record: for EC50: single experiment.
The test system of data set [15] is T. vaginalis trophozoites. The data set is described as follows: [3H]-guanine transport in T. vaginalis trophozoites. The conditions noted are these: 2 µM [3H]-guanine. It counts as cell-based, Trichomonas vaginalis.
The subject of data set [16] is T. vaginalis trophozoites. The conditions noted are these: 1 µM [3H]-hypoxanthine over 300 s, with or without 1 mM unlabelled hypoxanthine.
Data set [17] has as its target T1, TvagENT6. The settings on record: [3H]-uridine in the presence of 250 µM uracil; average.
The subject of data set [18] is O=c1ccn([C@@H]2O[C@H](CO)[C@@H](O)[C@H]2O)c(=O)[nH]1. The data set is described as follows: cells, lysate or membranes. The conditions noted are these: other: single experiment, Fig. 11D inset.
The mark [19] stands for this setting: inhibition of 1 µM [3H]-inosine uptake, average and SEM.
Setting [20] is: read-out: Ki,app, inhibition of 0.5 µM [3H]-uridine transport, 30 s, average and SEM.
Setting [21] is: read-out: Ki,app, inhibition of […] [3H]-adenosine transport, 30 s, monophasic, average and SEM.
The mark [22] stands for this setting: read-out: Ki,app, low affinity component.

Values joined by “and” are separate entries in the source; they are usually repeats but may differ in a detail not shown here. Equal entries are not always repeated. Where two headings read alike, the source gives them in different places. Some results are limits rather than exact numbers.

Broadly, the Km is the concentration of substrate that gives half-maximal velocity. A word on the EC50: it is the concentration giving half of the maximal effect. One may read the Hill slope as a measure of the steepness of the concentration-response curve. In the case of `Nc1ncnc2c1ncn2[C@@H]1O[C@H](CO)[C@@H](O)[C@H]1O` [adenosine], the “rate of transport in the presence of unlabelled permeant” value in data set [1] (0.25 µM [3H]-adenosine + 1 mM unlabelled adenosine) is 0.0091 ± 0.0085 pmol(10^7 cells)^−1s^−1. Further, the inhibition of uptake in data set [1] (0.25 µM [3H]-adenosine by 1 mM unlabelled adenosine) is on record as over 99%. In [1] (0.25 µM [3H]-adenosine, over 60 s, uninhibited), the rate of transport is 1.15 pmol(10^7 cells)^−1s^−1 and 1.15 ± 0.06 pmol(10^7 cells)^−1s^−1. In addition, the Vmax is recorded as 9.5 ± 2.4 pmol(10^7 cells)^−1s^−1 in data set [1] (Adenosine (HA), average and SEM); 31 ± 2 pmol(10^7 cells)^−1s^−1 in data set [6] (Adenosine (LA), average and SEM). In addition, the Km was 6.2 ± 0.6 µM in data set [1] (read-out: Km,app, Adenosine (HA), […] [3H]-adenosine, 30 s, average and SEM); 59.4 ± 6.1 µM in [6] (Adenosine (LA), 20 µM [3H]-adenosine, average and SEM); 59 ± 6 µM in data set [6] (Adenosine (LA), 20 µM [3H]-adenosine, average and SEM, listed as Adenosine); 63.5 µM in [6] (single experiment, Fig. 4A inset); 3.9 µM in [11]. Besides, the Ki in [2] stood at 4.1 ± 0.9 µM; in [3] (setting [19]), 6.36 ± 1.69 µM; in data set [3] (inhibition of 1 µM [3H]-inosine uptake, average and SEM, listed as Adenosine) it was 6.4 ± 1.7 µM; in data set [4] (setting [20]) it was 8.16 ± 0.59 µM; in data set [5] (average and SEM) it was 2.18 ± 0.29 µM; in [5] (average and SEM, listed as Adenosine), 2.2 ± 0.3 µM. The Ki in data set [7] (read-out: Ki,app, inhibition of Cytidine (LA) transport) was 357 ± 32 µM; in [10] (read-out: Ki,app, inhibition of 50 nM [3H]-adenine transport), 155 ± 48 µM; in [12], 47.2 ± 6.4 µM. The 50% effective concentration (EC50) in data set [6] (single experiment) was determined as 60.5 µM; in data set [8] it was 89.8 µM; in [10], 85.9 µM. Besides, in data set [9], the “inhibition of uracil transport” value is reported as “unable to inhibit”. The Hill slope in data set [13] is −1.04 ± 0.07; in [13] (single experiment, Fig. 10D-F), −1.1. In addition, the “inhibition of cytidine uptake” value in data set [13] (inhibitor at 400 µM) is recorded as “completely”.
In the case of `Nc1ccn([C@@H]2O[C@H](CO)[C@@H](O)[C@H]2O)c(=O)n1` [cytidine], the Ki came to 17.9 ± 4.4 µM in [1] (setting [21]); 18.6 ± 0.9 µM in [2]; 15.6 ± 2.3 µM in data set [4] (setting [20]); 116 ± 5 µM in [6] (average and SEM). Further, the inhibition of uptake in [5] (0.25 µM [3H]-cytidine by 1 mM unlabelled cytidine) amounted to 97.0%. In addition, the rate of transport in data set [5] (0.25 µM [3H]-cytidine, no inhibitor) was 0.026 ± 0.001 pmol(10^7 cells)^−1s^−1. In addition, the Vmax was 0.83 ± 0.06 pmol(10^7 cells)^−1s^−1 in data set [5] (Cytidine (HA), average and SEM); 6.7 ± 1.8 pmol(10^7 cells)^−1s^−1 in [7] (Cytidine (LA)); 0.042 pmol(10^7 cells)^−1s^−1 in data set [13] (single experiment, Fig. 10D inset). In addition, the Michaelis constant (Km) was determined as 7.19 ± 1.77 µM in data set [5] (Cytidine (HA), average and SEM); 7.2 ± 1.8 µM in [5] (Cytidine (HA), average and SEM, listed as Cytidine). The EC50 in data set [14] (read-out: EC50, higher affinity component, 0.125 µM [3H]-thymidine, 2-transporter plot, Fig. 3D) turned out to be 2.86 µM; in data set [14] (read-out: EC50, lower affinity component, 0.125 µM [3H]-thymidine, 2-transporter plot, Fig. 3D) it was 322 µM; in data set [6] (single experiment), 290 µM. In [13] (1 mM unlabelled cytidine), the “inhibition of cytidine uptake” value is listed as “strongly inhibited”. In data set [13] (single experiment, Fig. 10D-F), this molecule came in with a Hill slope of −0.99.
With `Nc1nc2nc[nH]c2c(=O)[nH]1` [guanine], the rate of uptake in [15] is 0.017 ± 0.002 pmol(10^7 cells)^−1s^−1 and 0.0167 ± 0.0020 pmol(10^7 cells)^−1s^−1.
For `O=c1[nH]cnc2nc[nH]c12` [hypoxanthine], the Ki was 185 ± 37 µM in [1] (setting [21]); over 1000 µM in data set [6] (average and SEM). Further, the inhibition of transport is reported as at most 50% in data set [14] (125 nM [3H]-thymidine, nucleobase at 1 mM) and at most 50% in data set [6] (20 µM [3H]-adenosine, highest tested concentration: guanosine 250 µM, adenine 1 mM, hypoxanthine 1 mM, uracil 10 mM). Moreover, the specific uptake entry in data set [16] is given as “no specific uptake”.
For the molecule `O=c1[nH]cnc2c1ncn2[C@@H]1O[C@H](CO)[C@@H](O)[C@H]1O` [inosine], the values for the Ki in data set [1] (setting [22]), in data set [4] (setting [22]) and in data set [12] were 347 ± 127 µM, 231 ± 23 µM and 40 ± 9.5 µM, respectively. Besides, the rate of uptake in [3] (1 µM [3H]-inosine) is recorded as 0.0081 ± 0.0002 pmol(10^7 cells)^−1s^−1; in [3] (1 µM [3H]-inosine, listed as Inosine) it was 0.0081 pmol(10^7 cells)^−1s^−1. The molecule further yielded an inhibition of uptake in [3] (1 µM [3H]-inosine time course, 1 mM unlabelled nucleoside) of 88%. For the same molecule, in [3] (Inosine (LA), average and SEM), the Vmax was 2.25 ± 0.37 pmol(10^7 cells)^−1s^−1. In [3] (inhibition of 1 µM [3H]-inosine uptake, single experiment, Fig. 5B), this molecule gave an EC50 of 67.1 µM. In addition, the Michaelis constant (Km) in data set [3] (Inosine (LA), 1 µM [3H]-inosine, average and SEM) was found to be 196 ± 18 µM; in data set [3] (single experiment, Fig. 5B inset), 157 µM. For the same molecule, in data set [9], the “inhibition of uracil transport” value is “unable to inhibit”. In addition, the Hill slope is −1.08 ± 0.02 in data set [13] and −1.07 in data set [13] (single experiment, Fig. 10D-F). The “inhibition of cytidine uptake” value in data set [13] (inhibitor at 400 µM) is given as “completely”.
With `O=c1ccn([C@@H]2O[C@H](CO)[C@@H](O)[C@H]2O)c(=O)[nH]1` [uridine], the Ki stood at 3.7 ± 1 µM in [1] (setting [21]); 7.8 ± 1.3 µM in data set [2]; 3.6 ± 1.1 µM in [3] (setting [19]); 1.98 ± 0.5 µM in [5] (average and SEM); 2 ± 0.5 µM in data set [5] (average and SEM, listed as Uridine); 376 ± 63 µM in data set [6] (average and SEM). The same molecule displayed a Ki in [13] of 11.3 ± 1.8 µM. Besides, the Km was 5.49 ± 1.8 µM in [4] (30 s, average and SEM); 5.5 ± 1.8 µM in data set [4] (30 s, average and SEM, listed as Uridine); 2.5 µM in data set [11]. In addition, the EC50 in [14] (inhibition of 0.125 µM [3H]-thymidine uptake, Fig. 3C/D) is 15.3 µM; in data set [6] (single experiment), 519 µM. In addition, the Vmax in data set [17] is reported as 0.092 ± 0.021 pmol(10^7 cells)^−1s^−1. Besides, the “inhibition of cytidine uptake” value in data set [13] (inhibitor at 400 µM) was “completely”. The Hill slope in [13] (inhibition of 0.5 µM [3H]-cytidine transport by TvagENT3, average) is on record as −0.98 ± 0.08; in [13] (single experiment, Fig. 10D-F) it was −0.93.
For the molecule TvagENT6 (Trichomonas vaginalis G3), in data set [18], the Km came out at 125.4 µM.
